Data published in patent US20230014907A1, “INHIBITORS OF APOL1 AND METHODS OF USING SAME” (Vertex Pharmaceuticals Incorporated, priority 2020, published 2023).

Key:
G1 APOL1 = biological target: T1, G1 APOL1 (Homo sapiens, UniProt O14791, I384M/S342G); assay: Acute APOL1 Thallium Assay with Inducible Stable Clones of HEK 293 Cells; assay type: cell-based; details: HEK 293 inducible stable clones, G1 APOL1; read-out: Thallium Assay (IC50)
T1 construct: expressed in transfected cells
T1 sequence (O14791 28-398 S342G/I384M): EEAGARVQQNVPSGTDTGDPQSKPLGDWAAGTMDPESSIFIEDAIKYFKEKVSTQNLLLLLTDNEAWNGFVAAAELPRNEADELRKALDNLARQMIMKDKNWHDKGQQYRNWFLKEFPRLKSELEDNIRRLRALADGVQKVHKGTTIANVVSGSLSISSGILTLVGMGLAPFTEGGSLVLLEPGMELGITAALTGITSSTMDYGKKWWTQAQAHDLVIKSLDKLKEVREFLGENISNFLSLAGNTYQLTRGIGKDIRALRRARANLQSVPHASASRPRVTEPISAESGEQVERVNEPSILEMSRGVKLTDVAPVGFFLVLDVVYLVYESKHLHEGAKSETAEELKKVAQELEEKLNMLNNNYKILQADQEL
Procedure, shortened: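 HEK293 T-Rex cells with a stable tetracycline-inducible G1 APOL1 construct (clone DC3.25) were induced with tetracycline at plating, 26000 cells per well, then incubated at 37° C. They were loaded with an AM-ester thallium-sensitive dye and stimulated with Tl+. The fluorescence rise measured Tl+ influx through APOL1 pores.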

APOL1 G1 Protein = biological target: T2, APOL1 G1 Protein (Homo sapiens, UniProt O14791, I384M/S342G); assay: Trypanosoma brucei brucei Lysis Assay Using APOL1 Recombinant Protein (AlamarBlue viability); assay type: cell-based; details: read-out: Trypanosomal Assay (IC50)
T2 sequence (O14791 28-398 S342G/I384M): T1 sequence (O14791 28-398 S342G/I384M)
Text: Trypanosoma brucei brucei is a blood stream parasite to which human, gorillas and baboon are immune due to the presence of the APOL1 protein in their HDL particles. The protein is uptaken by the parasite via the TbHpHb receptor located in its flagellar pocket and is bonded by the Hpr protein contained in the HDL particles which triggers the receptor endocytosis by the parasite.
Following endocytosis, the formed vesicle containing the HDL particle matures from early to late endosome, and subsequently to lysosome. The concomitant pH change in the lumen of the vesicle triggers the insertion of the APOL1 protein into the membrane of the late endosome/lysosome and hereby triggers lysosomal membrane permeabilization and as a further downstream event, trypanosome lysis. Trypanosoma brucei brucei is sensitive to lysis by all three APOL1 variants (G0, G1, and G2).
The Trypanosoma brucei brucei lysis assay is a lysis assay of the parasite using recombinant APOL1 protein variant followed by a fluorescent detection method of viability by the addition of AlamarBlue reagent to the assay well, a general metabolic redox indicator (AlamarBlue assay).
Briefly, the AlamarBlue active compound, the resazurin, a blue, water soluble, non-toxic and cell permeable molecule, which can be followed by absorbance, is reduced by various metabolic pathways into resorufin, a red compound which can be followed by either absorbance or fluorescence. The assay allows the calculation of the percent viability (percent of living Trypanosomes remaining in each well) at the end of a lysis relative to the untreated condition by interpolation of fluorescent values (FLU) on a standard curve with a known amount of seeded trypanosome/well.
Trypanosoma brucei brucei (ATCC, Cat. No. PRA-382) • Lister 427 VSG 221 bloodstream form.
Thaw/Expansion Media (ATCC Medium 2834 Modified HMI-9 Medium)
Assay Media (No Phenol Red/No FBS): Make on Day of Use
Hypoxanthine Stock (100×)-9 (10×)
Equipment • E1-Clip Tip pipette 12 channel adjustable 2-125 μL, Cat. No. 4672070BT • ThermoFisher MultiDrop 384, Cat. No. 5840300 • Multidrop • Agilent Bravo, Cat. No. G5409A • Bravo • SpectraMax M5
Trypanosoma brucei brucei Culture
Step 2, Day 4 • Centrifuge at 800×g for 5 minutes at room temperature. • Resuspend in 1 mL media. • Make a 1:25 fold dilution (10 μL/240 μL media). • Count on a hemocytometer (after adding parasites). • Let sit for 1-2 minutes for the parasites to settle. • Count should be approximately 100 viable motile parasites/16 grid or approximately 25×10^6 parasites/flask. • Passage the parasites by adding 1×10^6 parasites/T75 flask in 20 mL media. • Passage the parasites by adding 2.33×10^6 parasites/T175 flask in 46.6 mL media. • For every T75 flask should make enough for approximately 1.5×384 well assay plates. • For every T175 flask should make enough for approximately 3.8×384 well assay plates.
Step 3, Day 6 • Centrifuge at 800×g for 5 minutes. • Resuspend in 3 mL assay media (No phenol red, no FBS) per 75 starting flask. • Resuspend in 7 mL assay media (No phenol red, no FBS) per 175 flask • Make a 1:25 fold dilution. • Count by hemocytometer. • Every T75 flask set up should have approximately 75×10^6 parasites/flask (verify doubling time=8.7 hours±1 hour). • Every T175 flask set up should have approximately 175×10^6 parasites/flask (verify doubling time=8.7 hours±1 hour). • Require 46×10^6 parasites per 384 well plate (at 120,000 parasites per well). […]

Row | Structure (SMILES) | IC50 (G1 APOL1) [nM] | IC50 (APOL1 G1 Protein) [nM]
1 | CN(CCN)C(=O)CCc1c(-c2ccc(F)cc2)[nH]c2ccc(F)cc12 [Compound 37] | > 1000 | > 1000
2 | COCC(C)NC(=O)CCc1c(-c2ccc(F)cc2)[nH]c2ccc(F)cc12 (racemic) [Compound 30] | 250 to 1000 | 250 to 1000
3 | CC[C@H](CO)NC(=O)CCc1c(-c2ccc(F)cc2)[nH]c2ccc(F)cc12 [Compound 89] | 250 to 1000 | < 250
4 | O=C(CCc1c(-c2ccc(F)cc2)[nH]c2c(F)cc(F)cc12)N1CCC[C@H]1CO [Compound 145] | > 1000 | > 1000
5 | CNC(=O)C(C)NC(=O)CCc1c(-c2ccc(F)cc2)[nH]c2c(F)cc(F)cc12 (racemic) [Compound 100] | 250 to 1000 | 250 to 1000
6 | NC(=O)C1(NC(=O)CCc2c(-c3ccc(F)cc3)[nH]c3ccc(F)cc23)CC1 [Compound 20] | > 1000 | > 1000
7 | CC(C)C[C@H](CO)NC(=O)CCc1c(-c2ccc(F)cc2)[nH]c2c(F)cc(F)cc12 [Compound 192] | > 1000 | > 1000
8 | C#CC(CO)CNC(=O)CCc1c(-c2ccc(F)cc2)[nH]c2c(F)cc(F)cc12 (centres unmarked) [Compound 118] | 250 to 1000 | 250 to 1000
9 | NC(=O)[C@@H](CO)NC(=O)CCc1c(-c2ccc(F)cc2)[nH]c2c(F)cc(F)cc12 [Compound 98] | 250 to 1000 | > 1000
10 | O=C(CCc1c(-c2ccc(F)cc2)[nH]c2c(F)cc(F)cc12)N[C@H]1CCOC1=O [Compound 187] | < 250 | < 250
11 | CC(C)(CO)NC(=O)CCc1c(-c2ccc(F)cc2)[nH]c2ccc(F)cc12 [Compound 19] | 250 to 1000 | 250 to 1000
12 | N[C@H]1C[C@H](NC(=O)CCc2c(-c3ccc(F)cc3)[nH]c3ccc(F)cc23)C1 [Compound 54] | > 1000 | > 1000
13 | CNC(=O)CCc1c(-c2ccc(F)cc2)[nH]c2ccc(F)cc12 [Compound 73] | > 1000 | > 1000
14 | O=C(CCc1c(-c2ccc(F)cc2)[nH]c2ccc(F)cc12)NC1CC1(F)F (centres unmarked) [Compound 45] | 250 to 1000 | > 1000
15 | O=C(CCc1c(-c2ccc(F)cc2)[nH]c2ccc(F)cc12)NC(CO)CF (centres unmarked) [Compound 90] | 250 to 1000 | < 250
16 | O=C(CCc1c(-c2ccc(F)cc2)[nH]c2c(F)cc(F)cc12)NC(c1ccco1)C(F)(F)F (centres unmarked) [Compound 157] | > 1000 | > 1000
17 | Cc1cccc(CNC(=O)CCc2c(-c3ccc(F)cc3)[nH]c3c(F)cc(F)cc23)n1 [Compound 183] | > 1000 | > 1000
18 | O=C(CCc1c(-c2ccc(F)cc2)[nH]c2c(F)cc(F)cc12)NC1(CO)CC1 [Compound 131] | < 250 | < 250
19 | CCC(C)(CO)NC(=O)CCc1c(-c2ccc(F)cc2)[nH]c2ccc(F)cc12 (racemic) [Compound 62] | > 1000 | > 1000
20 | CNC(=O)C(C)NC(=O)CCc1c(-c2ccc(F)cc2)[nH]c2ccc(F)cc12 (racemic) [Compound 11] | 250 to 1000 | 250 to 1000
21 | O=C(CCc1c(-c2ccc(F)cc2)[nH]c2c(F)cc(F)cc12)NC1(CO)CCC1 [Compound 91, 3-[5,7-difluoro-2-(4-fluorophenyl)-1H-indol-3-yl]-N-[1-(hydroxymethyl)-cyclobutyl]propanamide] | < 250 | < 250
22 | CC(C#N)(CO)NC(=O)CCc1c(-c2ccc(F)cc2)[nH]c2ccc(F)cc12 (racemic) [Compound 33] | > 1000 | > 1000

Row | Structure (SMILES) | IC50 (G1 APOL1) [nM] | IC50 (APOL1 G1 Protein) [nM]
23 | Cn1nnnc1NC(=O)CCc1c(-c2ccc(F)cc2)[nH]c2c(F)cc(F)cc12 [Compound 165] | > 1000 | > 1000
24 | O=C(CCc1c(-c2ccc(F)cc2)[nH]c2ccc(F)cc12)NCCCO [Compound 85] | > 1000 | > 1000
25 | O=C(CCc1c(-c2ccc(F)cc2)[nH]c2c(F)cc(F)cc12)NCc1cn(CC(F)(F)F)cn1 [Compound 168] | > 1000 | > 1000
26 | O=C(CCc1c(-c2ccc(F)cc2)[nH]c2c(F)cc(F)cc12)NC[C@H](O)C(F)(F)F [Compound 114] | > 1000 | > 1000
27 | O=C(CCc1c(-c2ccc(F)cc2)[nH]c2ccc(F)cc12)NCCO [Compound 25] | > 1000 | > 1000
28 | O=C(CCc1c(-c2ccc(F)cc2)[nH]c2c(F)cc(F)cc12)NC1(C(F)(F)F)CCC1 [Compound 161] | > 1000 | > 1000
29 | O=C(CCc1c(-c2ccc(F)cc2)[nH]c2ccc(F)cc12)N[C@@H]1CCC[C@H]1O [Compound 48] | > 1000 | > 1000
30 | CN1CC(NC(=O)CCc2c(-c3ccc(F)cc3)[nH]c3ccc(F)cc23)C(=O)N1 (centres unmarked) [Compound 41] | > 1000 | > 1000
31 | O=C(CCc1c(-c2ccc(F)cc2)[nH]c2c(F)cc(F)cc12)N[C@@H](CO)C(F)(F)F [Compound 121] | < 250 | < 250
32 | O=C(CCc1c(-c2ccc(F)cc2)[nH]c2ccc(F)cc12)NC1(CO)CC1 [Compound 40] | 250 to 1000 | 250 to 1000
33 | O=C(CCc1c(-c2ccc(F)cc2)[nH]c2ccc(F)cc12)N1CCC(F)C1 (centres unmarked) [Compound 55] | > 1000 | > 1000
34 | C[C@@H](CO)NC(=O)NCCc1c(-c2ccc(F)cc2)[nH]c2c(F)cc(F)cc12 [Compound 283] | < 250 | < 250
35 | O=C(CCc1c(-c2ccc(F)cc2)[nH]c2ccc(F)cc12)N1CC(O)C1 [Compound 58] | > 1000 | > 1000
36 | O=C(CCc1c(-c2ccc(F)cc2)[nH]c2c(F)ccc(F)c12)N[C@H]1CCOC1=O [Compound 233, 3-[4,7-difluoro-2-(4-fluorophenyl)-1H-indol-3-yl]-N-[(3S)-2-oxotetrahydrofuran-3-yl]propanamide] | 250 to 1000 | > 1000
37 | O=C(CCc1c(-c2ccc(F)cc2)[nH]c2c(F)cc(F)cc12)Nc1ncco1 [Compound 162] | > 1000 | > 1000
38 | O=C(CCc1c(-c2ccc(F)cc2)[nH]c2c(F)cc(F)cc12)NC1CCCNC1=O (centres unmarked) [Compound 113] | > 1000 | 250 to 1000
39 | CC(CNC(=O)OC(C)(C)C)NC(=O)CCc1c(-c2ccc(F)cc2)[nH]c2ccc(F)cc12 (racemic) [Compound 59] | > 1000 | > 1000
40 | O=C(CCc1c(-c2ccc(F)cc2)[nH]c2c(F)cc(F)cc12)Nc1ccncc1 [Compound 119] | > 1000 | > 1000
41 | O=C(CCc1c(-c2ccc(F)cc2)[nH]c2ccc(F)cc12)NC1CCCNC1=O (centres unmarked) [Compound 26] | > 1000 | > 1000
42 | O=C(CCc1c(-c2ccc(F)cc2)[nH]c2c(F)cc(F)cc12)NC1(CO)CC(F)(F)C1 [Compound 122] | 250 to 1000 | > 1000
43 | O=C(CCc1c(-c2ccc(F)cc2)[nH]c2c(F)cc(F)cc12)N1CCCC1CCO (centres unmarked) [Compound 136] | > 1000 | > 1000
